“And” between values parts separate entries of the source, which are not always exact repeats. Identical values can stand only once. Like-named read-outs stand apart in the source and are kept apart here.
Columns and labels:
DDR1 [1] = molecular target: T1, DDR1 (Homo sapiens, UniProt Q08345); experiment: DDR1 LanthaScreen Europium Kinase Binding assay
Description: (§1) DDR1 and DDR2 binding assays were performed using Life Technologies LanthaScreen™ Europium Kinase Binding assay. The compounds were incubated with 5 nM DDR1 (Carna Biosciences) or 5 nM DDR2 (Life Technologies) for 1 hour at room temperature in white 384-well OptiPlate (PerkinElmer), containing 20 nM or 10 nM Kinase Tracer 178 respectively and 2 nM Europium labelled anti-GST antibody (Life Technologies) in assay buffer (50 mM HEPES pH 7.5, 10 mM MgCI2, 1 mM EGTA and 0.01% BRIJ35). The ratio of fluorescence emission 665 nm/615 nm after excitation at 340 nm was obtained using the Tecan Spark 20M plate reader. IC50 values were determined in GraphPad Prism 7.0 software, using 4 parameter model: log(inhibitor) vs. response. IC50 values were converted in Ki using the Cheng-Prusoff equation (Ki=IC50/(1+[Tracer]/Kd).

DDR2 = molecular target: T2, DDR2 (Homo sapiens, UniProt Q16832); experiment: DDR2 LanthaScreen Europium Kinase Binding assay
T2 sequence (Q16832 22-855): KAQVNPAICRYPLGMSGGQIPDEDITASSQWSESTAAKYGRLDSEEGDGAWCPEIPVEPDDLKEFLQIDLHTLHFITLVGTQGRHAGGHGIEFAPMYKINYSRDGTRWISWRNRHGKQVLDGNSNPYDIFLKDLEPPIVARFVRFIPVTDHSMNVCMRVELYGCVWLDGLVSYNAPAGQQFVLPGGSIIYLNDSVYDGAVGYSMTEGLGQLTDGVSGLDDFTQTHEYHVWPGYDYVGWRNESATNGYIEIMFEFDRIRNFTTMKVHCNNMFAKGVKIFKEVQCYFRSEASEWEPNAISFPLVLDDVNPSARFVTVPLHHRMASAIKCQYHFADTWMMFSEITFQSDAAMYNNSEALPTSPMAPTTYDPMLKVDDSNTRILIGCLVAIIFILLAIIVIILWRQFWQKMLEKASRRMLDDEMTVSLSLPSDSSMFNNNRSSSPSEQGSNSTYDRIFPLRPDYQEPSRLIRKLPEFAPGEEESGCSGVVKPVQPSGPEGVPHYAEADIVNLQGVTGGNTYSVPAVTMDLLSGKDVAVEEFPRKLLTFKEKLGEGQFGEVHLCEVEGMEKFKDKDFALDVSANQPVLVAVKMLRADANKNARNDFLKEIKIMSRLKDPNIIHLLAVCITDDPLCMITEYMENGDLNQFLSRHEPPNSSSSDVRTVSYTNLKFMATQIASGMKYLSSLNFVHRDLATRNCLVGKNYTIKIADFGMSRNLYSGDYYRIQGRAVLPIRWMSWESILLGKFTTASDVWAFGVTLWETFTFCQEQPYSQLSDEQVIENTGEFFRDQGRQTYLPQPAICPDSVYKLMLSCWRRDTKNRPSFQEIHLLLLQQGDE
Description: as §1

DDR1 [2] = molecular target: T1, DDR1; experiment: DDR1 cell based assay (PathHunter U2OS DDR1, collagen II stimulation); settings: U2OS-DDR1 cells, bovine Type II Collagen stimulation
Description: The inhibition of DDR1 receptor activation by compounds was evaluated by PathHunter® U2OS DDR1 assay (Eurofins DiscoverX), according to the manufacturer's instructions. Briefly, U2OS-DDR1 cells were seeded in white 384-well plates at a density of 5000 cells/well and incubated for 2 hours at 37° C. and 5% CO2. Cells were then treated with compounds at different concentrations and incubated for 30 minutes, before stimulation with bovine Type II Collagen 20 μg/ml and incubation overnight at 37° C. and 5% CO2. PathHunter Detection Reagents were prepared according to the protocol provided by DiscoverX and 20 μl/well of this mix were added to each well. After incubating the plates for 1 hour at room temperature in the dark, luminescence signal was acquired with a plate reader. Raw data were normalized to vehicle control (0% for normalization) and positive control (100% for normalization; cells treated with 20 μg/ml collagen II) and IC50 parameters were calculated in GraphPad Prism 8.0 software, using sigmoidal dose-response curve fitting with variable slope.

[3] = binding affinity, IC50 converted in Ki using Cheng-Prusoff, read-out: Ki DDR1
[4] = binding affinity, IC50 converted in Ki using Cheng-Prusoff, read-out: Ki DDR2
[5] = binding assay, Ki from IC50 by Cheng-Prusoff, read-out: DDR1 Ki
[6] = binding assay, Ki from IC50 by Cheng-Prusoff, read-out: DDR2 Ki

T1 sequence (Q08345 19-913): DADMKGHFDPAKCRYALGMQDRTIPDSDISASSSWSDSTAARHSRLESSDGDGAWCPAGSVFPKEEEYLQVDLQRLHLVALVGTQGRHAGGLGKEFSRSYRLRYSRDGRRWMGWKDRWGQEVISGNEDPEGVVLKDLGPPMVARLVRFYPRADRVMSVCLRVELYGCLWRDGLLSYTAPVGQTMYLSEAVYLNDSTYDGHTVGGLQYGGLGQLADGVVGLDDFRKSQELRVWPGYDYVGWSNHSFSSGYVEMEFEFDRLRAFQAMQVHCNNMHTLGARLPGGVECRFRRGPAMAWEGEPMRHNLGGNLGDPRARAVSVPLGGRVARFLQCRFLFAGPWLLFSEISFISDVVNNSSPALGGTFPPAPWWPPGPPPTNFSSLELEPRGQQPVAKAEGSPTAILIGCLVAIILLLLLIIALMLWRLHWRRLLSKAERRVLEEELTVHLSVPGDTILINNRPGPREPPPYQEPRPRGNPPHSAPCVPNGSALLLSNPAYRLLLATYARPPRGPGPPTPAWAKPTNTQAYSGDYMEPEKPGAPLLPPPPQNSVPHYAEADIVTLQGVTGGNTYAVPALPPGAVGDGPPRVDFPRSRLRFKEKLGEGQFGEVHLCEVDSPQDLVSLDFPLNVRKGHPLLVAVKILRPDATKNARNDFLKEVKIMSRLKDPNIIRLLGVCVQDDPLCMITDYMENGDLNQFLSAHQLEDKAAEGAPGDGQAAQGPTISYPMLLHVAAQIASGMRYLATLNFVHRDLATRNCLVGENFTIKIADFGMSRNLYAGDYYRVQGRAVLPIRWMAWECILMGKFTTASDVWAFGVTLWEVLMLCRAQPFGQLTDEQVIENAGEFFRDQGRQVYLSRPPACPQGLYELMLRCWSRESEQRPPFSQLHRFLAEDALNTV

CN1CCN(Cc2ccc(NC(=O)c3ccc4c(c3)N(Cc3cnc5ccnn5c3)CC4)cc2C(F)(F)F)CC1 [Example 76, N-(4-((4-methylpiperazin-1-yl)methyl)-3-(trifluoromethyl)phenyl)-1-(pyrazolo[1,5-a]pyrimidin-6-ylmethyl)indoline-6-carboxamide]
Ki (DDR1 [1]; [3]): < 25 nM
Ki (DDR2; [4]): < 25 nM
IC50 (DDR1 [2]): < 25 nM

CN1CCN(Cc2cc(C(=O)Nc3ccc4c(c3)N(C(=O)Cc3cnc5ccccn35)CC4)cc(C(F)(F)F)c2)CC1 [Example C2, N-(1-(2-(imidazo[1,2-a]pyridin-3-yl)acetyl)indolin-6-yl)-3-((4-methylpiperazin-1-yl)methyl)-5-(trifluoromethyl)benzamide]
Ki (DDR1 [1]; [5]): 600 nM
Ki (DDR2; [6]): 58000 nM

CN1CCN(Cc2ccc(NC(=O)c3ccc4c(c3)N(Cc3cnc5c(c3)CCN5)CC4)cc2C(F)(F)F)CC1 [Example 77, 1-((2,3-dihydro-1H-pyrrolo[2,3-b]pyridin-5-yl)methyl)-N-(4-((4-methylpiperazin-1-yl)methyl)-3-(trifluoromethyl)phenyl)indoline-6-carboxamide]
Ki (DDR1 [1]; [3]): < 25 nM
Ki (DDR2; [4]): 25 to 50 nM
IC50 (DDR1 [2]): < 25 nM

CN1CCN(Cc2ccc(NC(=O)c3ccc4c(c3)N(Cc3cnn5ccncc35)CC4)cc2C(F)(F)F)CC1 [Example 86, N-(4-((4-methylpiperazin-1-yl)methyl)-3-(trifluoromethyl)phenyl)-1-(pyrazolo[1,5-a]pyrazin-3-ylmethyl)indoline-6-carboxamide]
Ki (DDR1 [1]; [3]): < 25 nM
Ki (DDR2; [4]): < 25 nM
IC50 (DDR1 [2]): 25 to 50 nM

CN1CCN(Cc2cc(NC(=O)c3ccc4c(c3)N(C(=O)c3cnc5cnccn35)CC4)cc(C(F)(F)F)c2)CC1 [Example 15, 1-(imidazo[1,2-a]pyrazine-3-carbonyl)-N-(3-((4-methylpiperazin-1-yl)methyl)-5-(trifluoromethyl)phenyl)indoline-6-carboxamide]
Ki (DDR1 [1]; [3]): < 25 nM
Ki (DDR2; [4]): < 25 nM
IC50 (DDR1 [2]): 50 to 80 nM

CN(C)Cc1c[nH]c2ncc(CN3CCc4ccc(C(=O)Nc5cccc(C(F)(F)F)c5)cc43)cc12 [Example 90, 1-((3-((dimethylamino)methyl)-1H-pyrrolo[2,3-b]pyridin-5-yl)methyl)-N-(3-(trifluoromethyl)phenyl)indoline-6-carboxamide]
Ki (DDR1 [1]; [3]): < 25 nM
Ki (DDR2; [4]): < 25 nM
IC50 (DDR1 [2]): < 25 nM

Cc1n[nH]c2ncc(CN3CCc4ccc(C(=O)Nc5cc(CN6CCCC6)cc(C(F)(F)F)c5)cc43)cc12 [Example 66, 1-((3-methyl-1H-pyrazolo[3,4-b]pyridin-5-yl)methyl)-N-(3-(pyrrolidin-1-ylmethyl)-5-(trifluoromethyl)phenyl)indoline-6-carboxamide]
Ki (DDR1 [1]; [3]): < 25 nM
Ki (DDR2; [4]): < 25 nM
IC50 (DDR1 [2]): < 25 nM

CN1CCN(Cc2cc(C(=O)Nc3ccc4c(c3)N(Cc3cnc5cnccn35)CC4)cc(C(F)(F)F)c2)CC1 [Example 18, N-(1-(imidazo[1,2-a]pyrazin-3-ylmethyl)indolin-6-yl)-3-((4-methylpiperazin-1-yl)methyl)-5-(trifluoromethyl)benzamide]
Ki (DDR1 [1]; [3]): < 25 nM
Ki (DDR2; [4]): < 25 nM
IC50 (DDR1 [2]): 25 to 50 nM

COc1ccc(NC(=O)c2ccc3c(c2)N(Cc2cnc4cnccn24)CC3)cc1C(F)(F)F [Example 46, 1-(imidazo[1,2-a]pyrazin-3-ylmethyl)-N-(4-methoxy-3-(trifluoromethyl)phenyl)indoline-6-carboxamide]
Ki (DDR1 [1]; [3]): < 25 nM
Ki (DDR2; [4]): 25 to 50 nM
IC50 (DDR1 [2]): 50 to 80 nM

CN1CCN(Cc2cc(C(=O)Nc3ccc4c(c3)N(Cc3ccc5ncsc5c3)CC4)cc(C(F)(F)F)c2)CC1 [Example 17, N-(1-(benzo[d]thiazol-6-ylmethyl)indolin-6-yl)-3-((4-methylpiperazin-1-yl)methyl)-5-(trifluoromethyl)benzamide]
Ki (DDR1 [1]; [3]): < 25 nM
Ki (DDR2; [4]): < 25 nM
IC50 (DDR1 [2]): 25 to 50 nM

CC1CN(Cc2cnc3ccccn23)c2cc(C(=O)Nc3cccc(C(F)(F)F)c3)ccc21 (stereo not shown) [Example 33, 1-(imidazo[1,2-a]pyridin-3-ylmethyl)-3-methyl-N-(3-(trifluoromethyl)phenyl)indoline-6-carboxamide]
Ki (DDR1 [1]; [3]): < 25 nM
Ki (DDR2; [4]): 25 to 50 nM
IC50 (DDR1 [2]): 50 to 80 nM

O=C(Nc1cc(CN2CCCC2)cc(C(F)(F)F)c1)c1ccc2c(c1)N(Cc1cnc3cnccn13)CC2 [Example 50, 1-(imidazo[1,2-a]pyrazin-3-ylmethyl)-N-(3-(pyrrolidin-1-ylmethyl)-5-(trifluoromethyl)phenyl)indoline-6-carboxamide]
Ki (DDR1 [1]; [3]): < 25 nM
Ki (DDR2; [4]): < 25 nM
IC50 (DDR1 [2]): 25 to 50 nM

CC1CN(Cc2cnc3[nH]ccc3c2)c2cc(C(=O)Nc3cccc(C(F)(F)F)c3)ccc21 (stereo not shown) [Example 32, 1-((1H-pyrrolo[2,3-b]pyridin-5-yl)methyl)-3-methyl-N-(3-(trifluoromethyl)phenyl)indoline-6-carboxamide]
Ki (DDR1 [1]; [3]): 25 to 50 nM
Ki (DDR2; [4]): 25 to 50 nM
IC50 (DDR1 [2]): < 25 nM

CN(C)Cc1c[nH]c2ncc(CN3CCc4ccc(C(=O)Nc5cncc(C(F)(F)F)c5)cc43)cc12 [Example 83, 1-((3-((dimethylamino)methyl)-1H-pyrrolo[2,3-b]pyridin-5-yl)methyl)-N-(5-(trifluoromethyl)pyridin-3-yl)indoline-6-carboxamide]
Ki (DDR1 [1]; [3]): < 25 nM
Ki (DDR2; [4]): < 25 nM
IC50 (DDR1 [2]): < 25 nM

Cc1n[nH]c2ncc(CN3CCc4ccc(C(=O)Nc5cc(CN6CC[C@@H](N(C)C)C6)cc(C(F)(F)F)c5)cc43)cc12 [Example 72, (R)-N-(3-((3-(dimethylamino)pyrrolidin-1-yl)methyl)-5-(trifluoromethyl)phenyl)-1-((3-methyl-1H-pyrazolo[3,4-b]pyridin-5-yl)methyl)indoline-6-carboxamide]
Ki (DDR1 [1]; [3]): < 25 nM
Ki (DDR2; [4]): < 25 nM
IC50 (DDR1 [2]): < 25 nM

O=C(Nc1cccc(OC(F)(F)F)c1)c1ccc2c(c1)N(Cc1cnc3ccccn13)CC2 [Example 55, 1-(imidazo[1,2-a]pyridin-3-ylmethyl)-N-(3-(trifluoromethoxy)phenyl)indoline-6-carboxamide]
Ki (DDR1 [1]; [3]): < 25 nM
Ki (DDR2; [4]): 25 to 50 nM
IC50 (DDR1 [2]): < 25 nM

Cc1cn(-c2cc(NC(=O)c3ccc4c(c3)N(Cc3cnc5ccccn35)CC4C)cc(C(F)(F)F)c2)cn1 (stereo not shown) [Example 25, 1-(imidazo[1,2-a]pyridin-3-ylmethyl)-3-methyl-N-(3-(4-methyl-1H-imidazol-1-yl)-5-(trifluoromethyl)phenyl)indoline-6-carboxamide]
Ki (DDR1 [1]; [3]): < 25 nM
Ki (DDR2; [4]): 25 to 50 nM
IC50 (DDR1 [2]): 25 to 50 nM

O=C(Nc1cc(F)cc(OC(F)(F)F)c1)c1ccc2c(c1)N(Cc1cnc3cnccn13)CC2 [Example 44, N-(3-fluoro-5-(trifluoromethoxy)phenyl)-1-(imidazo[1,2-a]pyrazin-3-ylmethyl)indoline-6-carboxamide]
Ki (DDR1 [1]; [3]): < 25 nM
Ki (DDR2; [4]): < 25 nM
IC50 (DDR1 [2]): < 25 nM

O=C(Nc1cccc(C(F)(F)F)c1)c1ccc2c(c1)N(Cc1ccc3[nH]cnc3c1)CC2 [Example 60, 1-((1H-benzo[d]imidazol-5-yl)methyl)-N-(3-(trifluoromethyl)phenyl)indoline-6-carboxamide]
Ki (DDR1 [1]; [3]): < 25 nM
Ki (DDR2; [4]): 50 to 80 nM
IC50 (DDR1 [2]): 50 to 80 nM

CN1CCN(Cc2cc(NC(=O)c3ccc4c(c3)N(C(=O)Cc3cnc5ccccn35)CC4)cc(C(F)(F)F)c2)CC1 [Example C1, 1-(2-(imidazo[1,2-a]pyridin-3-yl)acetyl)-N-(3-((4-methylpiperazin-1-yl)methyl)-5-(trifluoromethyl)phenyl)indoline-6-carboxamide]
Ki (DDR1 [1]; [5]): > 600 nM and 58000 nM
Ki (DDR2; [6]): 58000 nM

— patent US20240217967A1, “INDOLINE DERIVATIVES AS DDRS INHIBITORS” (CHIESI FARMACEUTICI S.P.A., priority 2021, published 2024)
